Assays:
Format in all cases: in vivo
[1] = tested on: barnyardgrass (Echinochloa crus-galli); experiment: Test G Pre-Emergence Protocol; settings: Echinochloa crus-galli, pre-emergence, 312 h, evaluated after 13 days
Summary of the method: (§1)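 Glasshouse pre-emergence test: soil-sown seeds, sprayed after 1 d at 15.625, 62.5 or 250 g/ha. Conditions 24/16° C day/night, 14 h light, 65% humidity, watering twice daily. Rating 13 d post-spray (100 = total damage).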

corn (Zea mays) [2] = experiment: Test G Pre-Emergence Protocol; settings: Zea mays, pre-emergence, 312 h, evaluated after 13 days
Summary of the method: as §1

[3] = tested on: giant foxtail (Setaria faberi); experiment: Test G Pre-Emergence Protocol; settings: Setaria faberi, pre-emergence, 312 h, evaluated after 13 days
Summary of the method: as §1

[4] = tested on: ivy-leaved morning glory (Ipomoea hederacea); experiment: Test G Pre-Emergence Protocol; settings: Ipomoea, pre-emergence, 312 h, evaluated after 13 days
Summary of the method: as §1

[5] = tested on: redroot pigweed (Amaranthus retroflexus); experiment: Test G Pre-Emergence Protocol; settings: Amaranthus retroflexus, pre-emergence, 312 h, evaluated after 13 days
Summary of the method: as §1

[6] = tested on: velvetleaf (Abutilon theophrasti); experiment: Test G Pre-Emergence Protocol; settings: Abutilon theophrasti, pre-emergence, 312 h, evaluated after 13 days
Summary of the method: as §1

[7] = tested on: barnyardgrass (Echinochloa crus-galli); experiment: Test G Post-Emergence Protocol; settings: Echinochloa crus-galli, post-emergence, 312 h, read-out: Barnyardgrass damage rating
Summary of the method: (§2)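 Post-emergence herbicidal damage, scored visually 0–100 at 13 days. Application at 15.625, 62.5 or 250 g/ha onto 8-day-old plants grown under glasshouse control.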

corn (Zea mays) [8] = experiment: Test G Post-Emergence Protocol; settings: Zea mays, post-emergence, 312 h, read-out: Corn damage rating
Summary of the method: as §2

[9] = tested on: giant foxtail (Setaria faberi); experiment: Test G Post-Emergence Protocol; settings: Setaria faberi, post-emergence, 312 h, read-out: Foxtail, Giant damage rating
Summary of the method: as §2

[10] = tested on: ivy-leaved morning glory (Ipomoea hederacea); experiment: Test G Post-Emergence Protocol; settings: Ipomoea, post-emergence, 312 h, read-out: Morningglory, Ivy-leaved damage rating
Summary of the method: as §2

[11] = tested on: redroot pigweed (Amaranthus retroflexus); experiment: Test G Post-Emergence Protocol; settings: Amaranthus retroflexus, post-emergence, 312 h, read-out: Pigweed, Redroot damage rating
Summary of the method: as §2

[12] = tested on: velvetleaf (Abutilon theophrasti); experiment: Test G Post-Emergence Protocol; settings: Abutilon theophrasti, post-emergence, 312 h, read-out: Velvetleaf damage rating
Summary of the method: as §2

[13] = 15.625 g ai/ha, evaluated after 13 days (100=total damage to plant; 0=no damage to plant)
[14] = 62.5 g ai/ha, evaluated after 13 days, 100=total damage to plant, 0=no damage to plant
[15] = 250 g ai/ha, evaluated after 13 days, 100=total damage to plant, 0=no damage to plant

Cc1ccc([C@H]2CN(C)C(=O)[C@@H]2C(=O)Nc2ccc3cccnc3n2)cc1 (racemic) [Compound 1675]
pest or weed control at 15.625 g/ha ([1]; 15.625 g ai/ha, read-out: Barnyardgrass damage rating (100=total damage to plant; 0=no damage to plant)): 0%
pest or weed control at 62.5 g/ha ([1]; 62.5 g ai/ha, 100=total damage to plant, 0=no damage to plant, read-out: Barnyardgrass damage rating): 0%
pest or weed control at 250 g/ha ([1]; 250 g ai/ha, read-out: Barnyardgrass damage rating (100=total damage to plant; 0=no damage to plant)): 0%
plant injury at 15.625 g/ha (corn (Zea mays) [2]; 15.625 g ai/ha, read-out: Corn damage rating (100=total damage to plant; 0=no damage to plant)): 0%
plant injury at 62.5 g/ha (corn (Zea mays) [2]; 62.5 g ai/ha, 100=total damage to plant, 0=no damage to plant, read-out: Corn damage rating): 0%
plant injury at 250 g/ha (corn (Zea mays) [2]; 250 g ai/ha, read-out: Corn damage rating (100=total damage to plant; 0=no damage to plant)): 0%
pest or weed control at 15.625 g/ha ([3]; 15.625 g ai/ha, read-out: Foxtail, Giant damage rating (100=total damage to plant; 0=no damage to plant)): 0%
pest or weed control at 62.5 g/ha ([3]; 62.5 g ai/ha, 100=total damage to plant, 0=no damage to plant, read-out: Foxtail, Giant damage rating): 0%
pest or weed control at 250 g/ha ([3]; 250 g ai/ha, read-out: Foxtail, Giant damage rating (100=total damage to plant; 0=no damage to plant)): 10%
pest or weed control at 15.625 g/ha ([4]; 15.625 g ai/ha, read-out: Morningglory, Ivy-leaved damage rating (100=total damage to plant; 0=no damage to plant)): 0%
pest or weed control at 62.5 g/ha ([4]; 62.5 g ai/ha, 100=total damage to plant, 0=no damage to plant, read-out: Morningglory, Ivy-leaved damage rating): 0%
pest or weed control at 250 g/ha ([4]; 250 g ai/ha, read-out: Morningglory, Ivy-leaved damage rating (100=total damage to plant; 0=no damage to plant)): 0%
pest or weed control at 15.625 g/ha ([5]; 15.625 g ai/ha, read-out: Pigweed, Redroot damage rating (100=total damage to plant; 0=no damage to plant)): 0%
pest or weed control at 62.5 g/ha ([5]; 62.5 g ai/ha, 100=total damage to plant, 0=no damage to plant, read-out: Pigweed, Redroot damage rating): 0%
pest or weed control at 250 g/ha ([5]; 250 g ai/ha, read-out: Pigweed, Redroot damage rating (100=total damage to plant; 0=no damage to plant)): 0%
pest or weed control at 15.625 g/ha ([6]; 15.625 g ai/ha, read-out: Velvetleaf damage rating (100=total damage to plant; 0=no damage to plant)): 0%
pest or weed control at 62.5 g/ha ([6]; 62.5 g ai/ha, 100=total damage to plant, 0=no damage to plant, read-out: Velvetleaf damage rating): 0%
pest or weed control at 250 g/ha ([6]; 250 g ai/ha, read-out: Velvetleaf damage rating (100=total damage to plant; 0=no damage to plant)): 0%
pest or weed control at 15.625 g/ha [7, 13]: 0%
pest or weed control at 62.5 g/ha [7, 14]: 0%
pest or weed control at 250 g/ha [7, 15]: 0%
plant injury at 15.625 g/ha (corn (Zea mays) [8]; [13]): 0%
plant injury at 62.5 g/ha (corn (Zea mays) [8]; [14]): 0%
plant injury at 250 g/ha (corn (Zea mays) [8]; [15]): 0%
pest or weed control at 15.625 g/ha [9, 13]: 0%
pest or weed control at 62.5 g/ha [9, 14]: 0%
pest or weed control at 250 g/ha [9, 15]: 20%
pest or weed control at 15.625 g/ha [10, 13]: 0%
pest or weed control at 62.5 g/ha [10, 14]: 0%
pest or weed control at 250 g/ha [10, 15]: 0%
pest or weed control at 15.625 g/ha [11, 13]: 0%
pest or weed control at 62.5 g/ha [11, 14]: 0%
pest or weed control at 250 g/ha [11, 15]: 0%
pest or weed control at 15.625 g/ha [12, 13]: 0%
pest or weed control at 62.5 g/ha [12, 14]: 0%
pest or weed control at 250 g/ha [12, 15]: 10%

Reference: patent publication US12077503B2, “Substituted cyclic amides and their use as herbicides” (FMC CORPORATION, priority 2015, dated 2024)
